Laboratory results: US20260115185A1, “QUINOLINE DERIVATIVES WHICH ACT AS KAPPA-OPIOID RECEPTOR ANTAGONISTS” (The Scripps Research Institute, priority 2023, published 2026)

Tests used:
[1] = biological target: T1, kappa opioid receptor (KOR) (Homo sapiens, UniProt P41145); test: OPRKappa 1 Tango B-Arrestin Assay, antagonist mode (Tango OPRK1-bla U2OS cells, U50488 EC80 challenge); assay type: cell-based; conditions: for Selectivity (MOR/KOR): Kappa selectivity, MOR IC50 / KOR IC50; for IC50: antagonist mode, Tango OPRK1-bla U2OS cells, 6 nM U50488 challenge
T1 construct: host or cells: U2OS (Tango OPRK1-bla U2OS)
How it was run: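 Tango OPRK1-bla U2OS cells, β-arrestin recruitment read as β-lactamase FRET (CCF4-AM, 460/590 nm emission). Compounds, 10-point 1:3 series from nominal 10 µM in quadruplicate, preincubated 30 min at 37 °C, then challenged with U50488 at 6 nM final (EC80) for 4 h; percent inhibition from median ratio.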

[2] = biological target: T2, mu opioid receptor (MOR) (Homo sapiens, UniProt P35372); test: OPRMu1 Discover X β-arrestin Assay, antagonist mode (U2OS cells, DAMGO EC80 challenge); assay type: cell-based
T2 construct: host or cells: U2OS (Discover X OPRMu1-U2OS, PathHunter)
How it was run: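 PathHunter U2OS cells with β-gal fragment-complementation readout for β-arrestin recruitment to OPRMu1. Cells were preincubated with compound (10-point, 1:3 series from nominal 10 micromolar) for 30 min at 37 °C, then challenged with 303 nM DAMGO (EC80) for 3 h. Luminescence gave percent inhibition.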

T2 sequence (P35372 whole entry): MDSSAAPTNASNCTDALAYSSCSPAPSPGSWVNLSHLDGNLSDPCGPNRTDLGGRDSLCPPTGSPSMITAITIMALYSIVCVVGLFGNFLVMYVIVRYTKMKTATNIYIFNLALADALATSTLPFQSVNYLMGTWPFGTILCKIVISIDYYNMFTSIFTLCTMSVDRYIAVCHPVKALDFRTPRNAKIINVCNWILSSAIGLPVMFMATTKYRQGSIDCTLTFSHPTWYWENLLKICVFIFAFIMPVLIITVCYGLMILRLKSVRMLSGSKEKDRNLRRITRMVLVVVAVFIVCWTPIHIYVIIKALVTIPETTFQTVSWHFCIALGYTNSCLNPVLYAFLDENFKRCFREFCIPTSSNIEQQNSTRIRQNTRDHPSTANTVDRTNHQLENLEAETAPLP
T1 sequence (P41145 whole entry): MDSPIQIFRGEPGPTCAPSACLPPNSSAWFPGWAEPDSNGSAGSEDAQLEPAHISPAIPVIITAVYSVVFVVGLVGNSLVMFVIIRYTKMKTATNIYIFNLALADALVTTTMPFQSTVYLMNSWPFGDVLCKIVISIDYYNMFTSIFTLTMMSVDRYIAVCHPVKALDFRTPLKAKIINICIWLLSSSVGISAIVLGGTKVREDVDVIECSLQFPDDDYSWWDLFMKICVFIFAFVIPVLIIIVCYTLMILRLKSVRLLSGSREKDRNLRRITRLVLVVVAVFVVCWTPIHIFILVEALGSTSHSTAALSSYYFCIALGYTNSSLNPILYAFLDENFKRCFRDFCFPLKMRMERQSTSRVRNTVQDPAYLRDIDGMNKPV

Structure (SMILES)	Selectivity (MOR/KOR) [1]	IC50 [1] [nM]	IC50 [2] [nM]
CCc1cc(F)c2nc(N3CC[C@@H](N[C@@H]4CCCOC4)C[C@@H]3C)c(-c3ccn(C)n3)c(C)c2c1 [Compound 120]	++++ (more than 1000-fold selectivity over MOR)	< 1	> 1000
CCc1cc(F)c2nc(N3CCN(C(=O)CN(CC)CC)C[C@H]3C)c(-c3cc(C)no3)c(C)c2c1 [Compound 166]	+++ (between 100- to 1000-fold selective)	1 to 10	> 1000
CCc1cc(F)c2nc(N3CCN(C(=O)C(C)(C)N4CCCC4)C[C@H]3C)c(-c3ccn(C)n3)c(C)c2c1 [Compound 169]	++ (between 10- and 100-fold selectivity)	1 to 10	> 1000
CCc1cc(-c2ccnn2C)c2nc(N3CCC(NCC4(F)CCC4)CC3)c(-c3ccn(C)n3)c(C)c2c1 [Compound 90]	+++ (between 100- to 1000-fold selective)	< 1	10 to 100
CCc1cc(F)c2nc(N3CCN(CC4CCOCC4)C[C@H]3C)c(-c3cc(C)no3)c(C)c2c1 [Compound 63, (R)-5-(6-ethyl-8-fluoro-4-methyl-2-(2-methyl-4-((tetrahydro-2H-pyran-4-yl)methyl)piperazin-1-yl)quinolin-3-yl)-3-methylisoxazole]	+++ (between 100- to 1000-fold selective)	10 to 100	> 1000
CCc1cc(F)c2nc(N3CCN(C[C@@H]4CCCO4)C[C@H]3CC)c(-c3nc(C)no3)c(C)c2c1 [Compound 35]	++ (between 10- and 100-fold selectivity)	10 to 100	> 1000
CCc1cc(F)c2nc(N3CCN(C[C@H]4CCOC4)C[C@H]3C)c(-c3ccn(C)n3)c(C)c2c1 [Compound 58]	+++ (between 100- to 1000-fold selective)	10 to 100	> 1000
CCc1cc(F)c2nc(N3CC[C@@H]4[C@@H](CCN4[C@@H]4CCOC4)C3)c(-c3ccn(C)n3)c(C)c2c1 [Compound 123]	+++ (between 100- to 1000-fold selective)	10 to 100	> 1000
CCc1cc(F)c2nc(N3CCC(N[C@@H]4CCOC4)CC3)c(-c3cc(C)n(C)n3)c(C)c2c1 [Compound 66]	+++ (between 100- to 1000-fold selective)	1 to 10	100 to 1000
CCc1cc(F)c2nc(N3CC[C@@H](N[C@@H]4CCCOC4)C[C@H]3C)c(-c3cc(C)no3)c(C)c2c1 [Compound 144]	+++ (between 100- to 1000-fold selective)	< 1	100 to 1000
CCc1cc(-c2ccnn2C)c2nc(N3CCC(N[C@@H]4CCOC[C@@H]4F)CC3)c(-c3ccn(C)n3)c(C)c2c1 [Compound 20, 1-(6-ethyl-4-methyl-3-(1-methyl-1H-pyrazol-3-yl)-8-(1-methyl-1H-pyrazol-5-yl)quinolin-2-yl)-N-((3R,4R)-3-fluorotetrahydro-2H-pyran-4-yl)piperidin-4-amine]	++ (between 10- and 100-fold selectivity)	< 1	10 to 100
CCc1cc(-c2cc(C)nn2C)c2nc(N3CCC(N[C@H]4CCOC4)CC3)c(-c3ccn(C)n3)c(C)c2c1 [Compound 94]	+++ (between 100- to 1000-fold selective)	< 1	10 to 100
CCc1cc(F)c2nc(N3CCN(C(=O)C(C)(C)N4CCCC4)C[C@H]3C)c(-c3nc(C)no3)c(C)c2c1 [Compound 153]	+++ (between 100- to 1000-fold selective)	1 to 10	> 1000
CCc1cc(F)c2nc(N3CCN(C(=O)[C@H]4CC(F)(F)CCN4)C[C@H]3C)c(-c3nc(C)no3)c(C)c2c1 [Compound 200]	+++ (between 100- to 1000-fold selective)	1 to 10	> 1000
CCc1cc(F)c2nc(N3CCN(CC4CCOCC4)[C@@H](C)C3)c(-c3nc(C)no3)c(C)c2c1 [Compound 38, (S)-5-(6-ethyl-8-fluoro-4-methyl-2-(3-methyl-4-((tetrahydro-2H-pyran-4-yl)methyl)piperazin-1-yl)quinolin-3-yl)-3-methyl-1,2,4-oxadiazole]	++ (between 10- and 100-fold selectivity)	10 to 100	> 1000
Cc1cc(Cl)c2nc(N3CCN(CC4CCOCC4)C[C@H]3C)c(-c3nc(C)no3)c(C)c2c1 [Compound 51, (R)-5-(8-chloro-4,6-dimethyl-2-(2-methyl-4-((tetrahydro-2H-pyran-4-yl)methyl)piperazin-1-yl)quinolin-3-yl)-3-methyl-1,2,4-oxadiazole]	+++ (between 100- to 1000-fold selective)	1 to 10	100 to 1000
CCc1cc(F)c2nc(N3CCN(C4CC5(CCOCC5)C4)C[C@H]3C)c(-c3nc(C)no3)c(C)c2c1 [Compound 42]	+++ (between 100- to 1000-fold selective)	10 to 100	> 1000
CCc1cc(F)c2nc(N3CCN(CC4CC(F)(F)C4)C[C@H]3C)c(-c3nc(C)no3)c(C)c2c1 [Compound 59, (R)-5-(2-(4-((3,3-difluorocyclobutyl)methyl)-2-methylpiperazin-1-yl)-6-ethyl-8-fluoro-4-methylquinolin-3-yl)-3-methyl-1,2,4-oxadiazole]	+++ (between 100- to 1000-fold selective)	10 to 100	> 1000
CCc1cc(F)c2nc(N3CCN(C(=O)[C@@H]4C[C@@H](O)CN4C)C[C@H]3C)c(-c3nc(C)no3)c(C)c2c1 [Compound 160]	+++ (between 100- to 1000-fold selective)	10 to 100	> 1000
CCc1cc(F)c2nc(N3CCN(C(C)C4CCOCC4)C[C@H]3C)c(-c3nc(C)no3)c(C)c2c1 (stereo partly drawn) [Compound 199, 5-(6-ethyl-8-fluoro-4-methyl-2-((2R)-2-methyl-4-(1-(tetrahydro-2H-pyran-4-yl)ethyl)piperazin-1-yl)quinolin-3-yl)-3-methyl-1,2,4-oxadiazole]	++++ (more than 1000-fold selectivity over MOR)	10 to 100	> 1000
CCc1cc(-c2ccnn2C)c2nc(N3CCC(N)CC3)c(-c3ccn(C)n3)c(C)c2c1 [Compound 23, 1-(6-ethyl-4-methyl-3-(1-methyl-1H-pyrazol-3-yl)-8-(1-methyl-1H-pyrazol-5-yl)quinolin-2-yl)piperidin-4-amine]	+ (less than 10-fold selectivity)	≥ 100	> 1000
CCc1cc(-c2cc[nH]n2)c2nc(N3CCNC[C@H]3C)c(-c3nc(C)no3)c(C)c2c1 [Compound 105]	++ (between 10- and 100-fold selectivity)	10 to 100	> 1000
CCc1cc(F)c2nc(N3CCC(N[C@H]4COC[C@H]4F)CC3)c(-c3ccn(C)n3)c(C)c2c1 [Compound 72, 1-(6-ethyl-8-fluoro-4-methyl-3-(1-methyl-1H-pyrazol-3-yl)quinolin-2-yl)-N-((3S,4S)-4-fluorotetrahydrofuran-3-yl)piperidin-4-amine]	++ (between 10- and 100-fold selectivity)	10 to 100	> 1000
CCc1cc(F)c2nc(N3CCNC4CC43)c(-c3nc(C)no3)c(C)c2c1 (stereo not drawn) [Compound 64]	++ (between 10- and 100-fold selectivity)	≥ 100	> 1000
CCc1cc(F)c2nc(N3CC[C@@H](N[C@@H]4CCOC4)C[C@@H]3C)c(-c3cc(C)no3)c(C)c2c1 [Compound 138]	+++ (between 100- to 1000-fold selective)	10 to 100	> 1000
CCc1cc(F)c2nc(N3CCC(N[C@H]4CCOC4)CC3)c(-c3cc(C)n(C)n3)c(C)c2c1 [Compound 18, (S)-1-(3-(1,5-dimethyl-1H-pyrazol-3-yl)-6-ethyl-8-fluoro-4-methylquinolin-2-yl)-N-(tetrahydrofuran-3-yl)piperidin-4-amine]	+++ (between 100- to 1000-fold selective)	1 to 10	> 1000
